Measured values taken from US12091426B2, “Bifunctional degraders of hematopoietic progenitor kinase and therapeutic uses thereof” (Nurix Therapeutics, Inc., priority 2021, dated 2024).

Molecular target: T1, HPK1 (Homo sapiens, UniProt Q92918)
T1 construct: A HiBiT tag was introduced by CRISPR on the N terminus of HPK1 in Jurkat cells; host or cells: Jurkat cells (ATCC TIB-152), monoclonal line with CRISPR knock-in of HiBiT at the endogenous HPK1 locus
Experiment: HPK1 Cellular HiBit Degradation Assay
Assay type: cell-based
Details: HiBiT HPK1 Jurkat cells, 24 hrs; for DC50: concentration at which 50% of HPK1 was remaining, read-out: DC50 Category; for Dmax: Jurkat, maximum degradation vs DMSO vehicle control, read-out: Dmax Category
Summary of the method: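 Jurkat cells with CRISPR knock-in N-terminal HiBiT-HPK1 were treated with CTMs (11-point, 3.16-fold, 10 uM to 0.1 nM final) for 24 hrs at 37° C. HiBiT lytic luminescence, with parental Jurkat as background and DMSO as 100%, gave % HPK1 remaining; four-parameter fit yielded DC50 and Dmax (100 minus lowest % remaining).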

T1 sequence (Q92918 whole entry): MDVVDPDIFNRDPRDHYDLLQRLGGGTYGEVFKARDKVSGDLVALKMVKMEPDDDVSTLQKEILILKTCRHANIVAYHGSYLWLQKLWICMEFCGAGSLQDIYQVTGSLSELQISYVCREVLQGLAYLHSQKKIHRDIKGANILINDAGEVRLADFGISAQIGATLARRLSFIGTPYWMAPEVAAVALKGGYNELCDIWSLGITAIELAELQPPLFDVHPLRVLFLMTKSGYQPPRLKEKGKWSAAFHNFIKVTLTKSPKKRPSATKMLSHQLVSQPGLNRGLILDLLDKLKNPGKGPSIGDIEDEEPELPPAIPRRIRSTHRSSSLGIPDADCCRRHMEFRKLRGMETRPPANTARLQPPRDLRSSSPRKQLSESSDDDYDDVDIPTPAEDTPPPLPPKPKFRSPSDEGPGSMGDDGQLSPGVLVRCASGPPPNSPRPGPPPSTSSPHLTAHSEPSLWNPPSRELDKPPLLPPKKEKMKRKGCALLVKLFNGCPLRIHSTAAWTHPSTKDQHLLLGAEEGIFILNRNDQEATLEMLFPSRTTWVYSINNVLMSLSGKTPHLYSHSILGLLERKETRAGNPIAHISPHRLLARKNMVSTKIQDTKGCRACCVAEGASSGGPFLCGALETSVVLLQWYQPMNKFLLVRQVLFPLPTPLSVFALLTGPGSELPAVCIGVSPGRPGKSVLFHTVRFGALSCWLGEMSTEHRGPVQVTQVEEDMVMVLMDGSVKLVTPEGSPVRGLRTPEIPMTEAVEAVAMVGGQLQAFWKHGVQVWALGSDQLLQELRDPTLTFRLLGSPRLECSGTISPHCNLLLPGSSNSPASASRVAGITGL

| DC50 [nM] | Dmax [%] | SMILES |
| --- | --- | --- |
| < 100 | 70 to 85 | CC(C)n1cnc2cc(-c3ccc4c(c3)N([C@H]3C[C@@H](N5CCCCC5)C3)C(=O)C43CCN(C(=O)N4CCN(C(=O)C5CCN(c6ccc(C7CCC(=O)NC7=O)cn6)CC5)CC4)CC3)nc(NC3CC3)c21 (stereo partly drawn) [Example 180] |
| 100 to 500 | 50 to 70 | CC(C)n1cnc2cc(-c3ccc4c(c3)N([C@H]3C[C@@H](N5CCCCC5)C3)C(=O)C43CCN(C(=O)C4CCN(C(=O)[C@H]5CC[C@H](Nc6cncc(C7CCC(=O)NC7=O)c6)CC5)CC4)CC3)nc(Nc3ccccc3F)c21 (mixture of isomers) [Example 58, (3RS)-3-(5-{[(1R,4R)-4-{4-[(6-{4-[(2-fluorophenyl)amino]-3-(propan-2-yl)-3H-imidazo[4,5-c]pyridin-6-yl}-2-oxo-1-[(1S,3S)-3-(piperidin-1-yl)cyclobutyl]-1,2-dihydrospiro[indole-3,4′-piperidin]-1′-yl)carbonyl]piperidine-1-carbonyl}cyclohexyl]amino}pyridin-3-yl)piperidine-2,6-dione] |
| < 100 | 70 to 85 | CC(C)n1cnc2cc(-c3ccc4c(c3)N([C@H]3C[C@@H](N5CCCCC5)C3)C(=O)C43CCN(C(=O)C4(C)CCN(C(=O)C5CCN(c6ccc([C@@H]7CCC(=O)NC7=O)cn6)CC5)CC4)CC3)nc(OC3CCOCC3)c21 [Example 165, 3-(6-{4-[4-methyl-4-({6-[4-(oxan-4-yloxy)-3-(propan-2-yl)-3H-imidazo[4,5-c]pyridin-6-yl]-2-oxo-1-[(1S,3S)-3-(piperidin-1-yl)cyclobutyl]-1,2-dihydrospiro[indole-3,4′-piperidin]-1′-yl}carbonyl)piperidine-1-carbonyl]piperidin-1-yl}pyridin-3-yl)piperidine-2,6-dione] |

Continued, compound first:

| SMILES | DC50 [nM] | Dmax [%] |
| --- | --- | --- |
| CC(C)n1cnc2cc(-c3ccc4c(c3)N([C@H]3C[C@@H](N5CCCCC5)C3)C(=O)C43CCN(C(=O)[C@@H]4CCN(C(=O)[C@H]5CC[C@H](Nc6cccc(C7CCC(=O)NC7=O)n6)CC5)C4)CC3)nc(Nc3ccccc3F)c21 (mixture of isomers) [Example 8, (3RS)-3-(6-{1[(1R,4R)-4-[(3R)-3-[(6-{4-[(2-fluorophenyl)amino]-3-(propan-2-yl)-3H-imidazo[4,5-c]pyridin-6-yl}-2-oxo-1-[(1S,3S)-3-(piperidin-1-yl)cyclobutyl]-1,2-dihydrospiro[indole-3,4′-piperidin]-1′-yl)carbonyl]pyrrolidine-1-carbonyl]cyclohexyl]amino}pyridin-2-yl)piperidine-2,6-dione] | 500 to 1000 | 70 to 85 |
| CC(C)n1cnc2cc(-c3ccc4c(c3)N([C@H]3C[C@@H](N5CCCCC5)C3)C(=O)C43CCN(C(=O)C4C5CN(C(=O)C6CCN(c7ccc(C8CCC(=O)NC8=O)cn7)CC6)CC54)CC3)nc(Nc3ccccc3F)c21 (mixture of isomers) [Example 39, (3RS)-3-[6-(4-{6-[(6-{4-[(2-fluorophenyl)amino]-3-(propan-2-yl)-3H-imidazo[4,5-c]pyridin-6-yl}-2-oxo-1-[(1S,3S)-3-(piperidin-1-yl)cyclobutyl]-1,2-dihydrospiro[indole-3,4′-piperidin]-1′-yl)carbonyl]-3-azabicyclo[3.1.0]hexane-3-carbonyl}piperidin-1-yl)pyridin-3-yl]piperidine-2,6-dione] | < 100 | > 85 |
| CC(C)n1cnc2cc(-c3ccc4c(c3)N([C@H]3C[C@@H](N5CCCCC5)C3)C(=O)C43CCN(CC(=O)N(C)C4CCN(C(=O)C5CCN(c6cc(C7CCC(=O)NC7=O)ccn6)CC5)CC4)CC3)nc(NC3CC3)c21 (stereo partly drawn) [Example 201, 2-{6-[4-(cyclopropylamino)-3-(propan-2-yl)-3H-imidazo[4,5-c]pyridin-6-yl]-2-oxo-1-[(1S,3S)-3-(piperidin-1-yl)cyclobutyl]-1,2-dihydrospiro[indole-3,4′-piperidin]-1′-yl}-N-(1-{1-[4-(2,6-dioxopiperidin-3-yl)pyridin-2-yl]piperidine-4-carbonyl}piperidin-4-yl)-N-methylacetamide] | 100 to 500 | 50 to 70 |
